Laboratory results published in ChEMBL document CHEMBL5260825, “Chemical Constituents of Bryophytes: Structures and Biological Activity” (J Nat Prod, 2018).
Values after ≈ are worked out from the molar mass of the structure shown. Values belong to the compound of their own block, whether it stands above or below them.

Key:
P388 = assay: Antiproliferative activity against mouse P388 cells assessed as cell growth inhibition; type: functional, cell-based
[1] = biological target: T1, Polyunsaturated fatty acid 5-lipoxygenase (Homo sapiens) (UniProt P09917); assay: Inhibition of ALOX5 (unknown origin) at 0.000001 M relative to control; details: dose 1 µM
T1 sequence (whole entry): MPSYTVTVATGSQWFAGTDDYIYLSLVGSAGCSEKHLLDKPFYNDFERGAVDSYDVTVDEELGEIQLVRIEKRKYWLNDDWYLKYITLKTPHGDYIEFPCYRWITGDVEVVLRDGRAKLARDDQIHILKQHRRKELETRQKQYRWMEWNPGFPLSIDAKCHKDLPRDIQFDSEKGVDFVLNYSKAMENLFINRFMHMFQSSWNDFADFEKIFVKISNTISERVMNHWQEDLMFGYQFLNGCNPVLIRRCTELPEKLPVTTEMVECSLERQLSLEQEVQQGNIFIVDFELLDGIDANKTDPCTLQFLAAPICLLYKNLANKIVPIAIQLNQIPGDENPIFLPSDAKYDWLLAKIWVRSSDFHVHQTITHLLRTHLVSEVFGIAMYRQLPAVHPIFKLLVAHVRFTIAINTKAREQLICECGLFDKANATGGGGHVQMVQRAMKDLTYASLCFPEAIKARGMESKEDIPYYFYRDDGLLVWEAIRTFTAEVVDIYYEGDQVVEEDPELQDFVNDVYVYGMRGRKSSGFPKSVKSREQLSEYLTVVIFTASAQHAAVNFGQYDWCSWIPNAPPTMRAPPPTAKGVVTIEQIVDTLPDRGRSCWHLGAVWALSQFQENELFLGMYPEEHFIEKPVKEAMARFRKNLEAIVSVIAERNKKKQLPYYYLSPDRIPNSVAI

DNA polymerase beta = DNA polymerase beta (Homo sapiens, UniProt P06746); assay: Inhibition of DNA polymerase beta (unknown origin)
HL-60 = assay: Antiproliferative activity against human HL-60 cells assessed as cell growth inhibition; type: functional, cell-based
[2] = system: Trichostrongylus colubriformis; assay: Anthelmintic activity against third stage larvae of Trichostrongylus colubriformis by microscope based analysis; type: functional, organism-based
Staphylococcus aureus = assay: Antibacterial activity against Staphylococcus aureus assessed as inhibition of bacterial growth by agar diffusion method; type: functional
[3] = Antioxidant activity assessed as DPPH radical scavenging activity; type: functional
RAW264.7 [4] = assay: Inhibition of LPS-induced NO production in mouse RAW264.7 cells incubated for 24 hrs by Griess reagent based assay; type: functional, cell-based; details: RAW264.7, 24 h
Bacillus subtilis = assay: Antibacterial activity against Bacillus subtilis assessed as inhibition of bacterial growth; type: functional
[5] = system: Peritoneal macrophage cell; assay: Inhibition of superoxide anion radical release in guinea pig peritoneal macrophages; type: functional, cell-based; details: Cavia porcellus
RAW264.7 [6] = assay: Inhibition of LPS-induced NO production in mouse RAW264.7 cells; type: functional, cell-based
[7] = Toxicity in brine shrimp assessed as lethality; details: artemia salina
Cyclooxygenase = Cyclooxygenase (Homo sapiens, UniProt P35354+P23219); assay: Inhibition of COX (unknown origin); type: protein assay
KB = assay: Antiproliferative activity against human KB cells assessed as cell growth inhibition; type: functional, cell-based
Candida albicans = assay: Antifungal activity against Candida albicans assessed as inhibition of fungal growth by MTT assay; type: functional

SMILES: CC1=CCc2c(O)cc(CCc3ccc(O)cc3)cc2OC1
- inhibition [1]: 4%

SMILES: Oc1ccc2c(c1)CCc1ccc(cc1)Oc1cc(cc(-c3cc4c(cc3O)CCc3ccc(cc3)Oc3cc(ccc3O)CCc3ccc-4c(O)c3)c1O)CCc1ccc-2c(O)c1
- IC50 (DNA polymerase beta): 5.16 µM

SMILES: C=C1C(=O)[C@@]23CC[C@@H]4C(C)(C)CC[C@H](O)[C@@]4(C)C2=CC[C@@H]1C3
- IC50 (HL-60): 7 µM

SMILES: COc1cc(/C=C\c2ccccc2)ccc1O
- IC50 [2]: 70 µg/mL (≈ 309 µM)

SMILES: C=C1C(=O)O[C@@H]2/C=C(\C)CC/C=C(\C)CC(OC(C)=O)[C@@H]12 (some centres undefined)
- IC50 (HL-60): 4.6 µM

SMILES: Cc1cc([C@@]2(C)CCCC2(C)C)c(O)c(O)c1Cc1cc(O)c(O)c([C@@]2(C)CCCC2(C)C)c1
- diameter of the inhibition zone (DIZ) (Staphylococcus aureus): 13 mm
- IC50 [3]: 2.7 µg/mL (≈ 5.79 µM)
- IC50 (HL-60): 2.4 µg/mL
- IC50 (RAW264.7 [4]): 4.1 µM
- MIC (Bacillus subtilis): 2 µg/mL (≈ 4.29 µM)

SMILES: Cc1cc([C@@]2(C)CCCC2(C)C)cc(O)c1O
- IC50 [5]: 12.5 µg/mL (≈ 53.3 µM)

SMILES: COC(=O)[C@@]12Cc3occc3C(=O)[C@]1(C)CC[C@H]2C [NORPINGUISONE METHYL ESTER]
- IC50 (RAW264.7 [6]): 45.5 µM
- IC50 [5]: 35 µg/mL (≈ 133 µM)

SMILES: COc1ccc(CCc2c(Cl)ccc(O)c2Cl)cc1
- LC50 [7]: 0.42 ppm

SMILES: CC1=CCc2c(O)cc(CCc3ccccc3O)cc2OC1
- IC50 (RAW264.7 [6]): 4.5 µM

SMILES: Cc1cc(O)c(O)c([C@@]2(C)CCCC2(C)C)c1
- diameter of the inhibition zone (DIZ) (Staphylococcus aureus): 17 mm
- IC50 [3]: 1.9 µg/mL (≈ 8.11 µM)
- IC50 (HL-60): 1.4 µg/mL
- IC50 (RAW264.7 [4]): 4.1 µM
- MIC (Bacillus subtilis): 2 µg/mL (≈ 8.53 µM)

SMILES: C=C1[C@@H]2CCC3[C@@](CC(=O)[C@@H]4C(C)(C)CCC[C@@]34CO[C@@H]3O[C@H](CO)[C@@H](O)[C@H](O)[C@H]3OC(C)=O)(C2)[C@@H]1O (some centres undefined)
- IC50 [5]: 12.5 µg/mL (≈ 23.9 µM)

SMILES: O=C(N[C@H](CO)[C@H](O)c1ccc([N+](=O)[O-])cc1)C(Cl)Cl [CHLORAMPHENICOL]
- diameter of the inhibition zone (DIZ) (Staphylococcus aureus): 22 mm

SMILES: Clc1ccc(COC(Cn2ccnc2)c2ccc(Cl)cc2Cl)c(Cl)c1 (centres undefined) [MICONAZOLE]
- MID (Candida albicans): 0.01 µg

SMILES: CC1(C)CCC[C@]2(C)CC3=CC(=O)O[C@@]3(O)C[C@@H]12
- IC50 (P388): 2.3 µg/mL (≈ 9.19 µM)

SMILES: CC(C)(O)[C@H]1CC[C@@]2(C)C1CC[C@]1(C)C2CCC2[C@@]3(C)CCCC(C)(C)[C@@H]3[C@@H](O)C[C@]21C (some centres undefined)
- IC50 (P388): 1.1 µg/mL (≈ 2.47 µM)

SMILES: CC1(C)CCC[C@]1(C)c1cc(CCc2cc(O)c(O)c([C@@]3(C)CCCC3(C)C)c2)cc(O)c1O
- IC50 [3]: 2 µg/mL (≈ 4.29 µM)
- IC50 (HL-60): 2.5 µg/mL
- IC50 (RAW264.7 [4]): 4.1 µM
- MIC (Bacillus subtilis): 2 µg/mL (≈ 4.29 µM)

SMILES: C/C1=C\[C@@H]2[C@H](CC/C(C)=C/CC1)C2(C)C=O (some centres undefined)
- IC50 [5]: 12.5 µg/mL (≈ 57.3 µM)

SMILES: C=C1[C@@H]2CCC3[C@@](CC(=O)[C@@H]4C(C)(C)CCC[C@@]34CO[C@@H]3O[C@H](CO)[C@@H](O)[C@H](O)[C@H]3O)(C2)[C@@H]1O (some centres undefined)
- IC50 [5]: 12.5 µg/mL (≈ 26 µM)

Second part, led by results:

- IC50 (P388): 1 µg/mL (≈ 4.58 µM)
SMILES: C=C1C(=O)C[C@H]2[C@H]3[C@@H]1[C@]2(C)CCCC3(C)C

- IC50 (Cyclooxygenase): 39.7 µM
- inhibition [1]: 4%
SMILES: CC1=CCc2c(cc(CCc3ccccc3)c(C(=O)O)c2O)OC1

- IC50 (KB): 0.96 µM
- IC50 (HL-60): 0.92 µM
SMILES: COc1ccc(C[C@@H]2OC(=O)c3c(OC)cc(OC)cc32)cc1

- IC50 (DNA polymerase beta): 14.4 µM
- IC50 (Cyclooxygenase): 45.2 µM
SMILES: COc1cc(CCc2cccc(Oc3c(O)cccc3CCc3ccc(O)cc3)c2)cc(O)c1O

- inhibition [1]: 4%
SMILES: CC(C)=CCc1c(O)cc(CCc2ccccc2)cc1O

- IC50 (HL-60): 8.5 µM
SMILES: C=C1C(=O)O[C@H]2C/C(C)=C/CC[C@@]3(C)O[C@H]3C[C@H]12

- IC50 (RAW264.7 [6]): 1.7 µM
SMILES: C[C@@H]1CC[C@H]2C(=O)c3ccoc3C[C@@]12C
- IC50 [5]: 12.5 µg/mL (≈ 61.2 µM)

- IC50 (HL-60): 5.3 µg/mL
SMILES: C=C1CCC[C@H]2C(=C)C(=O)O[C@@]23[C@@H](C)CC[C@@H]13

- IC50 (HL-60): 0.4 µM
SMILES: C=C1C(=O)[C@]23C[C@H]1CC[C@H]2[C@]1(C)CCCC(C)(C)[C@H]1[C@@H](O)C3

- IC50 (P388): 1 µg/mL (≈ 3.62 µM)
SMILES: C=C1C(=O)C[C@H]2[C@H]3[C@@H]1[C@]2(COC(C)=O)CCCC3(C)C

- IC50 (KB): 3.3 µg/mL
- IC50 (HL-60): 1.4 µg/mL
SMILES: C=C1C(=O)O[C@H]2C[C@@]3(C)CCC=C(C)[C@@H]3C[C@@H]12

- IC50 (HL-60): 1.21 µM
SMILES: C=C1C(=O)[C@H]2C[C@@H]1CC1=C2[C@]2(C)CCCC(C)(C)[C@H]2CC1

- IC50 (DNA polymerase beta): 13 µM
SMILES: Oc1ccc2c(c1)CCc1ccc(cc1)Oc1cc(cc(-c3cc4cc(c3O)Oc3ccc(cc3)CCc3cc(O)ccc3-c3ccc(cc3O)CC4)c1O)CCc1ccc-2c(O)c1 [PUSILATIN B]
